Marks after values point to notes of the source that are not given here.
Key:
MCF-7H cells = assay: 7-day in vitro proliferation assay in tamoxifen-resistant MCF-7H breast cancer cells (methyl-3H-thymidine incorporation); assay type: cell-based, human; details: for Efficacy (fractional to E2): fraction of maximal response, E2 = 1.00 per definition; for Efficacy (fractional to E2) / % E2: MCF-7H; for % E2: relative potency to induce proliferation, normalized against E2 (=100 per definition); for induce proliferation of MCF-7H breast cancer cells: potency range and efficacy in words
Description: To what extent compounds are capable of stimulating proliferation in ER-positive, tamoxifen-resistant breast cancer cells is tested in a 7-day in vitro proliferation assay using MCF-7H cells. More specifically, this in vitro bioassay is used to determine the efficacy (fraction of maximal response), pEC50, and relative potency of the compound to induce proliferation by comparing the data for this compound with those of the reference compound 17β-estradiol (E2) in the same test.
(§1) A more detailed description of the method used is as follows.
Cell culture: The human epithelial breast cancer cell line MCF-7H (origin: Hubrecht Laboratory, Utrecht, The Netherlands) was routinely maintained in complete medium which is a 1:1 mixture of Ham's F12 medium and Dulbecco's Modified Eagle Medium (DMEM; Invitrogen, Carlsbad, USA) without phenol red and enriched with 5% fetal calf serum (FCS; Hyclone, Utah, USA), 100 μg/ml streptomycin and 100 units/ml penicillin adapted to contain:
Cells were grown in 80 cm^2 culture flasks (Nunc, Roskilde, Denmark) and kept in an atmosphere of 5% CO2-95% air at 37 degrees Celsius. Cells were subcultured when they reached about 80-90% confluence, resulting in one passage a week. Subculturing includes detaching the cells using trypsin/EDTA and diluting the cell suspension 10 times.
Methyl-^3H-thymidine incorporation assay: MCF-7H cells were starved overnight in assay medium containing 5% charcoal-treated (CT) bovine calf serum (BCS; Hyclone) instead of FCS and a final concentration of 1.0 μg/ml bovine insulin, the day before plating. Cells were plated in assay medium containing 5% CT BCS, in white 24-wells plates (Perkin Elmer, Shelton, USA), at a density of 7.5×10^3 cells per well, each well containing 630 μL assay medium. Cells were allowed to attach and spread for 24 h before stimulation with reference and/or test compound(s). After a stimulation period of 7 days, 0.25 μCi/well of methyl-^3H-thymidine (GE Healthcare Limited, Buckinghamshire, UK) was added per well. Cultures were maintained in an atmosphere of 5% CO2-95% air at 37 degrees Celsius. After overnight incubation, excess methyl-^3H-thymidine was aspirated and the cells were washed with phosphate-buffered saline (PBS). After 1 h of incubation with 1 ml scintillation fluid Microscint-20 (Perkin Elmer), radioactivity was measured in a Packard TOP-count NXT microplate scintillation counter (Perkin Elmer).

estrogen receptor alpha = biological target: T1, estrogen receptor alpha (Homo sapiens, UniProt P03372); assay: ERα downregulation assay in T47D breast cancer cells (ERα ELISA); assay type: cell-based; details: 24 hours; for DR (%): downregulation of ERα relative to fulvestrant (100%), 1E-5 M, negative = upregulation
T1 construct: endogenous in cells; host or cells: T47D human breast cancer cells (ATCC)
T1 sequence (P03372 1-595): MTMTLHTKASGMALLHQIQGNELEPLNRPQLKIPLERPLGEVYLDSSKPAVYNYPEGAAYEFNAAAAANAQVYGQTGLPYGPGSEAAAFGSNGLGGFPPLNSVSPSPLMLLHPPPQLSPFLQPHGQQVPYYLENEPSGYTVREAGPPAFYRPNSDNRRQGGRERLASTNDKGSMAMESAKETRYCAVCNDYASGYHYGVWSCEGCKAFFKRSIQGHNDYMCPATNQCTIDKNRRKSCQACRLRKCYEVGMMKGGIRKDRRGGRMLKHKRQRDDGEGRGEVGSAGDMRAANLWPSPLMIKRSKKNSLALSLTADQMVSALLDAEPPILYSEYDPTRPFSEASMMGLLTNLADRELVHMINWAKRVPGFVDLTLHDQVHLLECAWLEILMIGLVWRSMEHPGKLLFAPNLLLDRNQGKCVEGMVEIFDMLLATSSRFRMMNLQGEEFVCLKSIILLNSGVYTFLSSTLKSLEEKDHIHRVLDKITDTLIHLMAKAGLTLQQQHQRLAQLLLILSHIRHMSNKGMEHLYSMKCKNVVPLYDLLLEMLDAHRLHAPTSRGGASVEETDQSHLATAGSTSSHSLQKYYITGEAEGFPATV
From the text: More specifically, this in vitro bioassay is used to determine the efficacy (fraction of maximal response) of the compound by comparing the data for this compound with those of the reference compound ICI 182,780 (fulvestrant) in the same test (downregulation of fulvestrant is 100% by definition).
as §1
Cell culture. The human epithelial breast cancer cell line T47D (origin: ATCC) was routinely maintained in a 1:1 mixture of Ham's F12 medium and Dulbecco's Modified Eagle Medium (Gibco) enriched with 5% fetal calf serum (Hyclone), 10 mM HEPES pH 7.5 and 100 μg/ml penicillin-streptomycin solution. Cells were grown in 80 cm2 culture flasks (Nunc, Roskilde, Denmark) and kept in an atmosphere of 5% CO2-95% air at 37 degrees Celsius. Cells were subcultured when they reached about 80-90% confluence, resulting in one passage a week. Subculturing includes detaching the cells using Cell Dissociation Buffer [Sigma] and subsequent inoculation at 1:5 or 1:10 in a new Roux flask (175 cc) and\or plating out in Nunclon™ Surface 96 wells microplates. The culture medium needs to be refreshed on day three or four of the incubation, if applicable.
Determination of ERα protein levels: T47D cells in the microplates are incubated with 1E-5 M test compound for 24 hours. The supernatant in all wells is carefully aspirated. Cells are lysed on the microplate and cell lysates are probed for ERα content using an ERα ELISA assay kit (Active Motif).

[1] = biological target: T2, human estrogen receptor α (hERα) (Homo sapiens, UniProt P03372); assay: antagonistic activity in CHO cells co-transfected with hERα, rat oxytocin promoter and luciferase reporter gene; assay type: cell-based; details: antagonism of 17β-estradiol-induced transactivation, CHO-hERα-RO-LUC; read-out: ERα pIC50 (converted)
T2 sequence (P03372 1-595): T1 sequence (P03372 1-595)
Description: The antagonistic activity of compounds on the estrogen receptors was determined in an in vitro bioassay with recombinant Chinese Hamster Ovary (CHO) cells stably co-transfected with the human estrogen receptor α (hERα), the rat oxytocin promoter (RO) and the luciferase reporter gene (LUC). […] The antagonistic efficacy, i.e. the amount of maximal inhibition of the 17β-estradiol activated receptor by a compound, is expressed as fraction relative to the maximal inhibition as induced by the standard anti-estrogen ICI 164,384 (efficacy test compound=(maximal inhibition test compound/maximal inhibition ICI 164,384)). A more detailed description of the methodology can be found in De Gooyer et al., Steroids, 68 (2003) 21-30.

Compound: CC/C(=C(\c1ccc(O)cc1)c1ccc(OCCN(C)C)cc1)c1ccccc1 [4OHT, 4-OH-tamoxifen]
- Efficacy (fractional to E2) (MCF-7H cells): 0.49
- % E2 (MCF-7H cells): 2.3%

Compound: CC/C(=C(/c1ccc(OCCN(C)C)cc1)c1cccc(O)c1)c1ccccc1 [Droloxifene]
- Efficacy (fractional to E2) (MCF-7H cells): 0.38
- % E2 (MCF-7H cells): 5.9%

Compound: CCCN1CC(Oc2ccc(-c3c(-c4ccc(O)cc4)sc4cc(O)ccc34)cc2)C1.O=C(O)C(F)(F)F [compound 6b, 2-(4-hydroxyphenyl)-3-(4-(1-propylazetidin-3-yloxy)phenyl)benzo[b]thiophen-6-ol 2,2,2-trifluoroacetate]
- DR (%) (estrogen receptor alpha): 53%
- IC50 [1]: 0.794 nM
- Emax (MCF-7H cells; Homo sapiens, MCF7, 168 h, efficacy (fraction of maximal response relative to E2) in MCF-7H proliferation, read-out: MCF7 ia): 10%

Compound: O=C(c1ccc(OCCN2CCCCC2)cc1)c1c(-c2ccc(O)cc2)sc2cc(O)ccc12 [Raloxifene]
- Efficacy (fractional to E2) (MCF-7H cells): 0.33
- % E2 (MCF-7H cells): 21.1%

Compound: C#C[C@]1(O)CC[C@H]2[C@@H]3CCc4cc(O)ccc4[C@H]3CC[C@@]21C [EE, Ethynyl Estradiol]
- Efficacy (fractional to E2) (MCF-7H cells): 0.99
- induce proliferation of MCF-7H breast cancer cells (MCF-7H cells): in the picomolar range and with full efficacy
- % E2 (MCF-7H cells): 137%

Compound: CC/C(=C(\c1ccccc1)c1ccc(OCCN(C)C)cc1)c1ccccc1 [Tamoxifen]
- Efficacy (fractional to E2) (MCF-7H cells): 0.58
- % E2 (MCF-7H cells): 0.008%

Compound: C[C@]12CC[C@@H]3c4ccc(O)cc4CC[C@H]3[C@@H]1CC[C@@H]2O [E2, 17β-estradiol]
- Efficacy (fractional to E2) (MCF-7H cells): 1.00 ^a
- induce proliferation of MCF-7H breast cancer cells (MCF-7H cells): in the picomolar range and with full efficacy
- % E2 (MCF-7H cells): 100 ^a %

Compound: CCCN1CC(Oc2ccc(C(=O)c3c(-c4cccc(O)c4)noc3-c3ccccc3F)cc2)C1.Cl [compound 7ba, (5-(2-fluorophenyl)-3-(3-hydroxyphenyl)isoxazol-4-yl)(4-(1-propylazetidin-3-yloxy)phenyl)methanone hydrochloride]
- DR (%) (estrogen receptor alpha): 51%
- IC50 [1]: 15.8 nM

Compound: CCCN1CC(Oc2ccc(C(=O)c3c(-c4ccc(F)c(C)c4)sc4cc(O)ccc34)cc2)C1.Cl [compound 7s, (2-(4-fluoro-3-methylphenyl)-6-hydroxybenzo[b]thiophen-3-yl)(4-(1-propylazetidin-3-yloxy)phenyl)methanone hydrochloride]
- DR (%) (estrogen receptor alpha): 101%
- IC50 [1]: 5.01 nM

Compound: COCCCN1CC(Oc2ccc(C(=O)c3c(-c4ccc(O)cc4)sc4cc(O)ccc34)cc2)C1.O=C(O)C(F)(F)F [compound 7k, (6-hydroxy-2-(4-hydroxyphenyl)benzo[b]thiophen-3-yl)(4-(1-(3-methoxypropyl)azetidin-3-yloxy)phenyl)methanone 2,2,2-trifluoroacetate]
- DR (%) (estrogen receptor alpha): 57%
- IC50 [1]: 2 nM

Compound: CCCN1CC(Oc2ccc(-c3c(-c4ccccc4CC)noc3-c3ccc(O)cc3)cc2)C1.O=C(O)C(F)(F)F [compound 7ad, 4-(3-(2-ethylphenyl)-4-(4-(1-propylazetidin-3-yloxy)phenyl)isoxazol-5-yl)-phenol 2,2,2-trifluoroacetate]
- DR (%) (estrogen receptor alpha): 92%
- IC50 [1]: 1 nM

Compound: COc1ccc(-c2sc3cc(O)ccc3c2Oc2ccc(OCCN3CCCCC3)cc2)cc1 [Arzoxifene]
- Efficacy (fractional to E2) (MCF-7H cells): 0.34
- % E2 (MCF-7H cells): 99.1%

Compound: CCCN1CC(Oc2ccc(C(=O)c3c(-c4cccs4)sc4cc(O)ccc34)cc2)C1.Cl [compound 7f, (6-hydroxy-2-(thiophen-2-yl)benzo[b]thiophen-3-yl)(4-(1-propylazetidin-3-yl-oxy)phenyl)methanone hydrochloride]
- DR (%) (estrogen receptor alpha): 88%
- IC50 [1]: 2.51 nM

Compound: CCCN1CC(Oc2ccc(C(=O)c3c(-c4cc(F)cc(F)c4)sc4cc(O)ccc34)cc2)C1.Cl [compound 7t, (2-(3,5-difluorophenyl)-6-hydroxybenzo[b]thiophen-3-yl)(4-(1-propylazetidin-3-yloxy)phenyl)methanone hydrochloride]
- DR (%) (estrogen receptor alpha): 98%
- IC50 [1]: 2 nM

Compound: Cl.O=C(c1ccc(OC2CN(CC3CCC3)C2)cc1)c1c(-c2ccc(O)cc2)sc2cc(O)ccc12 [compound 7n, (4-(1-(cyclobutylmethyl)azetidin-3-yloxy)phenyl)(6-hydroxy-2-(4-hydroxyphenyl)benzo[b]thiophen-3-yl)methanone hydrochloride]
- DR (%) (estrogen receptor alpha): 77%
- IC50 [1]: 1.26 nM

Compound: C[C@]12CC[C@@H]3c4ccc(O)cc4C[C@@H](CCCCCCCCC[S+]([O-])CCCC(F)(F)C(F)(F)F)[C@H]3[C@@H]1CC[C@@H]2O (stereo partly drawn) [Fulvestrant]
- Downregulation (% of fulvestrant) (estrogen receptor alpha; 1E-5 M test compound, fulvestrant = 100 per definition, negative number = upregulation or stabilization): 100 ^a %
- Efficacy (fractional to E2) (MCF-7H cells): 0.02
- % E2 (MCF-7H cells): 18.9%

Compound: CCCN1CC(Oc2ccc(-c3c(-c4c(C)cccc4Cl)noc3-c3ccc(O)cc3)cc2)C1.O=C(O)C(F)(F)F [compound 7ab, 4-(3-(2-chloro-6-methylphenyl)-4-(4-(1-propylazetidin-3-yloxy)phenyl)isoxazol-5-yl)phenol 2,2,2-trifluoroacetate]
- DR (%) (estrogen receptor alpha): 86%
- IC50 [1]: 0.398 nM

Compound: CCCN1CC(Oc2ccc(-c3c(-c4cccc(C)c4C)noc3-c3ccc(O)cc3)cc2)C1.O=C(O)C(F)(F)F [compound 7ac, 4-(3-(2,3-dimethylphenyl)-4-(4-(1-propylazetidin-3-yloxy)phenyl)isoxazol-5-yl)phenol 2,2,2-trifluoroacetate]
- DR (%) (estrogen receptor alpha): 94%
- IC50 [1]: 1.58 nM

Compound: CCCN1CC(Oc2ccc(C(=O)c3c(-c4ncccc4C)noc3-c3ccc(O)cc3)cc2)C1.Cl [compound 7am, (5-(4-hydroxyphenyl)-3-(3-methylpyridin-2-yl)isoxazol-4-yl)(4-(1-propylazetidin-3-yloxy)phenyl)methanone hydrochloride]
- DR (%) (estrogen receptor alpha): 93%
- IC50 [1]: 25.1 nM

From patent US9540361B2, “N-substituted azetidine derivatives” (Merck Sharp & Dohme B.V., priority 2010, dated 2017)
